# Results from patent US20080249130A1, “Gut microsomal triglyceride transport protein inhibitors” (Sirtris Pharmaceuticals, Inc., priority 2007, published 2008).
# Tested on: secretion of ApoB by HepG2 cells
# Assay: ApoB secretion inhibition assay in HepG2 cells (ApoB ELISA)
# Assay type: cell-based, human
# Conditions: Homo sapiens, HepG2, Table 6, assay of Example 2; read-out: IC50 ApoB Assay
# Experimental: The ability of the compounds of the present invention to inhibit the secretion of ApoB can be determined using the following cell-based assay, which measures the secretion of ApoB by HepG2 cells. ApoB has two possible metabolic fates: entrance into the lipoprotein assembly pathway within the lumen of the endoplasmic reticulum (ER), or degradation in the cytoplasm by the ubiquitin-dependent proteasome. The destiny of ApoB is determined by the relative availability of individual lipids, which is controlled by MTP (Davis, Biochim. Biophys. Acta, 1999, 1440, 1-31).
# HepG2 cells (ATCC, HB-8065) are seeded in 96-well plates in DMEM with 10% FBS+pen/strep at a density of 1×10^5 cells/well (100 μl /well). Twenty-four hours after seeding, the plate is aspirated and the media changed to DMEM with 1% BSA and pen/strep, and the cells are serum-starved for 24 hours. After 24 hour serum-starvation, the plate is aspirated again and the cells are then treated for 24 hours with or without compound in DMEM with 1% BSA, 0.3 mM OA (OA complexed to BSA at a 2:1 ratio) and pen/strep. The final concentration of DMSO in the assay (from compound and control) is 0.1%. After 24 hour treatment, conditioned media is collected in an empty 96-well plate.
# Cellular viability is measured using the cell permeable dye, AlamarBlue™. This dye undergoes electron reduction in viable cells but not dead cells. The reduced dye product gives a fluorescent signal which can be monitored with a fluorescence plate reader (excitation 545 nm and emission 575 nm). The amount of fluorescence generated in a given well is proportional to the number of viable cells. After collection, the 96-well plate is re-fed with 100 μl media (DMEM with 10% FBS) and 10 μl Alamar Blue™ per well, incubated for 2 hours and then read in a fluorescence plate reader.
# ApoB secretion from HepG2 cells is quantitated by testing the conditioned media at […] using an ApoB ELISA kit (ALerCHEK) according to the manufacturer's instructions. The ELISA assay for ApoB is performed as follows: a polyclonal antibody against human ApoB (Chemicon) is diluted 1:1000 in carbonate-bicarbonate buffer and 100 μl are added to each well of a 96-well plate (NUNC). After 5 hours incubation at room temperature, the antibody solution is removed and wells are washed four times with PBS/0.05% TweenD 20 (Cayman Chemical Co.). Non-specific sites on the plastic plate are blocked by incubating wells for 1 to 1.5 hours in a solution of 0.5% BSA and 0.1% TweenD 20 made in PBS. One hundred microliters of a 1:20 dilution of growth medium from the HepG2 cells (made in 0.004% TweenD 20/1% BSA in PBS) is added to each well and incubated for 3 hours at room temperature. Wells are aspirated and washed four times (0.05% TweenD 20 in PBS) prior to adding 100 μl of a 1:1000 dilution (5 μg/ml) of the secondary antibody, mouse anti-human ApoB (Chemicon). After 2 hours incubation at room temperature, this solution is aspirated and the wells are again washed 4 times as above. One hundred microliters of peroxidase-conjugated affinity purified goat anti-mouse IgG (H+L) (Jackson ImmunoResearch Laboratories) (1:10,000 dilution in PBS/1% BSA/0.1% TweenD 20) is then added to each well and incubated for 1 hour at room temperature. After aspirating, the wells are washed 4 times as above and 50 μl of 1-step Ultra TMB ELISA reagent (Pierce) is added to each well and incubated for 5 minutes. The reaction is stopped by the addition of 50 μl of 2 NH2SO4 and absorbance of each well is read at 450 nm.
row,Structure (SMILES),IC50
1,Cc1cccc(C(=O)Nc2ccc3nc(C(=O)N[C@H](C(=O)N(C)Cc4ccc(F)cc4)c4ccccc4)sc3c2)c1-c1ccc(C(C)(C)C)cc1 [Compound 41],2.9 nM
2,CC(C)c1ccc(-c2ccccc2C(=O)NC23CCC(C(=O)N[C@H](C(=O)N(C)Cc4ccc(F)cc4)c4ccccc4)(CC2)CC3)cc1 [Compound 105],13.4 nM
3,Cc1cccc(C(=O)NC23CCC(C(=O)N[C@H](C(=O)N(C)Cc4ccc(F)cc4)c4ccccc4)(CC2)CC3)c1-c1ccc(C(C)C)cc1 [Compound 114],3.5 nM
4,Cc1cccc(C(=O)NC23CCC(C(=O)N[C@H](C(=O)N4CCCC4)c4ccccc4)(CC2)CC3)c1-c1ccc(C(C)C)cc1 [Compound 113],4.4 nM
5,CCCN(C)C(=O)[C@@H](NC(=O)c1ccc(-c2csc(NC(=O)c3cccc(C)c3-c3ccc(C(C)C)cc3)n2)cc1)c1ccccc1 [Compound 97],143 nM
6,CC(C)(C)c1ccc(-c2ccccc2C(=O)Nc2nc(-c3cccc(C(=O)N[C@H](C(=O)N4CCC(F)(F)C4)c4ccccc4)c3)cs2)cc1 [Compound 26],77.2 nM
7,O=C(N[C@H](C(=O)NCC1CC1)c1ccccc1)c1nc2ccc(NC(=O)c3ccccc3-c3cn4ccsc4n3)cc2s1 [Compound 62],286 nM
8,CN(C(=O)[C@@H](NC(=O)c1nc2ccc(NC(=O)c3ccccc3-c3cn4ccsc4n3)cc2s1)c1ccccc1)C1CCCCC1 [Compound 61],2100 nM
9,CCCCN(C)C(=O)[C@@H](NC(=O)C12CCC(NC(=O)c3ccccc3-c3ccc(C(C)(C)C)cc3)(CC1)CC2)c1ccccc1 [Compound 101],11.7 nM
10,CC(C)(C)c1ccc(-c2ccccc2C(=O)Nc2ccc3nc(C(=O)N[C@@H](C(=O)N4CCCC4)c4ccccc4)sc3c2)cc1 [Compound 34],34.8 nM
11,Cc1cccc(C(=O)NC23CCC(C(=O)N[C@H](C(=O)N4CCCC4)c4ccccc4)(CC2)CC3)c1-c1ccc(C(C)(C)C)cc1 [Compound 107],1.7 nM
12,CC(C)CNC(=O)[C@@H](NC(=O)c1ccc(-c2csc(NC(=O)c3ccccc3-c3ccc(C(C)(C)C)cc3)n2)cc1)c1ccccc1 [Compound 82],197 nM
13,CN(Cc1ccc(F)cc1)C(=O)[C@@H](NC(=O)c1ccccc1-c1csc(NC(=O)c2ccccc2-c2ccc(C(C)(C)C)cc2)n1)c1ccccc1 [Compound 17],> 10000 nM
14,CC(C)N(C)C(=O)[C@@H](NC(=O)c1ccc(-c2csc(NC(=O)c3ccccc3-c3ccc(C(C)(C)C)cc3)n2)cc1)c1ccccc1 [Compound 93],89.7 nM
15,O=C(N[C@H](C(=O)N1CCCCC1)c1ccccc1)c1nc2ccc(NC(=O)c3ccccc3-c3cn4ccsc4n3)cc2s1 [Compound 44],1610 nM
16,CCCCN(C)C(=O)[C@@H](NC(=O)C12CCC(NC(=O)c3ccccc3-c3ccc(C(C)C)cc3)(CC1)CC2)c1ccccc1 [Compound 103],26.1 nM
17,COc1cccc(C(=O)NC23CCC(C(=O)N[C@H](C(=O)N(C)Cc4ccc(F)cc4)c4ccccc4)(CC2)CC3)c1-c1ccc(C(C)C)cc1 [Compound 111],110 nM
18,CC(C)c1ccc(-c2ccccc2C(=O)Nc2nc(-c3ccc(C(=O)N[C@H](C(=O)N(C)C(C)C)c4ccccc4)cc3)cs2)cc1 [Compound 99],121 nM
19,CCCCN(C)C(=O)[C@@H](NC(=O)C12CCC(NC(=O)c3cccc(OC)c3-c3ccc(C(C)C)cc3)(CC1)CC2)c1ccccc1 [Compound 115],99.3 nM

row,Structure (SMILES),IC50
1,CC(C)c1ccc(-c2ccccc2C(=O)NC23CCC(C(=O)N[C@H](C(=O)N4CCCC4)c4ccccc4)(CC2)CC3)cc1 [Compound 104],3.5 nM
2,CC(C)(C)c1ccc(-c2ccccc2C(=O)NCC23CCC(C(=O)N[C@H](C(=O)NCC4CC4)c4ccccc4)(CC2)CC3)cc1 [Compound 49],60.3 nM
3,Cc1cccc(C(=O)Nc2nc(-c3ccc(C(=O)N[C@H](C(=O)N(C)CC(C)C)c4ccccc4)cc3)cs2)c1-c1ccc(C(C)C)cc1 [Compound 90],115 nM
4,CN(C(=O)[C@@H](NC(=O)C12CCC(CNC(=O)c3ccccc3-c3ccc(C(C)(C)C)cc3)(CC1)CC2)c1ccccc1)C1CCCC1 [Compound 47],78.8 nM
5,CN(C(=O)[C@@H](NC(=O)C12CCC(CNC(=O)c3ccccc3-c3ccc(C(C)(C)C)cc3)(CC1)CC2)c1ccccc1)C1CCCCC1 [Compound 58],300 nM
6,O=C(N[C@H](C(=O)N1CCCC1)c1ccccc1)c1nc2ccc(NC(=O)c3ccccc3-c3cn4ccsc4n3)cc2s1 [Compound 43],105 nM
7,CC(C)c1ccc(-c2ccccc2C(=O)Nc2nc(-c3ccc(C(=O)N[C@H](C(=O)N4CCCC4)c4ccccc4)cc3)cs2)cc1 [Compound 94],18.5 nM
8,CC(C)CN(C)C(=O)[C@@H](NC(=O)C12CCC(NC(=O)c3ccccc3-c3ccc(C(C)(C)C)cc3)(CC1)CC2)c1ccccc1 [Compound 102],34.1 nM
9,COc1cccc(C(=O)Nc2ccc3nc(C(=O)N[C@H](C(=O)N(C)Cc4ccc(F)cc4)c4ccccc4)sc3c2)c1-c1ccc(C(F)(F)F)cc1 [Compound 80],1.6 nM
10,Cc1cccc(C(=O)NCC23CCC(C(=O)N[C@H](C(=O)N4CCCC4)c4ccccc4)(CC2)CC3)c1-c1ccc(C(C)(C)C)cc1 [Compound 65],5.2 nM
11,Cc1cccc(C(=O)Nc2nc(-c3ccc(C(=O)N[C@H](C(=O)N(C)CC(C)C)c4ccccc4)cc3)cs2)c1-c1ccc(C(C)(C)C)cc1 [Compound 87],339 nM
12,CN(Cc1ccc(F)cc1)C(=O)[C@@H](NC(=O)c1nc2ccc(NC(=O)c3ccccc3-c3cccnc3)cc2s1)c1ccccc1 [Compound 28],158 nM
13,CN(C(=O)[C@@H](NC(=O)c1nc2ccc(NC(=O)c3ccccc3-c3cn4ccsc4n3)cc2s1)c1ccccc1)C(C)(C)C [Compound 53],4180 nM
14,Cc1cccc(C(=O)Nc2nc(-c3ccc(C(=O)N[C@H](C(=O)N4CCCC4)c4ccccc4)cc3)cs2)c1-c1ccc(C(C)C)cc1 [Compound 89],8.8 nM
15,Cc1cccc(C(=O)NCC23CCC(C(=O)N[C@H](C(=O)N(C)C(C)C)c4ccccc4)(CC2)CC3)c1-c1ccc(C(C)(C)C)cc1 [Compound 70],13.8 nM
16,CC(C)(C)c1ccc(-c2ccccc2C(=O)NCC23CCC(C(=O)N[C@H](C(=O)N4CCC(F)(F)C4)c4ccccc4)(CC2)CC3)cc1 [Compound 21],190 nM
17,CC(C)(C)c1ccc(-c2ccccc2C(=O)Nc2ccc3nc(C(=O)N[C@H](C(=O)NCc4ccccc4)c4ccccc4)sc3c2)cc1 [Compound 6],4 nM
18,CC(C)(C)NC(=O)[C@@H](NC(=O)c1nc2ccc(NC(=O)c3ccccc3-c3cn4ccsc4n3)cc2s1)c1ccccc1 [Compound 52],248 nM
19,COc1cccc(C(=O)Nc2ccc3nc(C(=O)N[C@H](C(=O)N(C)Cc4ccc(F)cc4)c4ccccc4)sc3c2)c1-c1ccc(C(C)C)cc1 [Compound 76],2.8 nM

# Same assay, conditions: Homo sapiens; Table 1, HepG2 cells; read-out: gMTP IC50 ApoB Secretion Assay (Example 2)
row,Structure (SMILES),IC50
1,"CN(Cc1ccc(F)cc1)C(=O)[C@@H](NC(=O)c1ccc2nc(NC(=O)c3ccccc3-c3ccc(C(C)(C)C)cc3)ccc2c1)c1ccccc1 [compound 3, reference compound]",1.6 nM

# Same assay, conditions: Table 6, assay of Example 2; read-out: IC50 ApoB Assay
row,Structure (SMILES),IC50
1,Cc1cccc(C(=O)NC23CCC(C(=O)N[C@H](C(=O)N4CCCC4)c4ccccc4)(CC2)CC3)c1-c1ccc(C(C)(C)C)cc1 [Compound 107],1.5 nM
2,Cc1cccc(C(=O)NCC23CCC(C(=O)N[C@H](C(=O)N4CCCC4)c4ccccc4)(CC2)CC3)c1-c1ccc(C(C)(C)C)cc1 [Compound 65],4.5 nM

# Target: MTP (Homo sapiens, UniProt P55157)
# Assay: In vitro inhibition of MTP, triacylglycerol transfer assay with donor and acceptor liposomes (fluorescence)
# Assay type: biochemical
# Conditions: Table 6, assay of Example 3; read-out: IC50 Enzyme Assay
# Experimental: This assay is commercially available (Cat. #D400, Chylos Inc., New York). Liposomes are pipetted in 5 μl aliquots into the wells of a black fluorescence microtiter plate, followed by addition of 5 μl of water and an incubation of 2-5 min to allow the samples to equilibrate to rt. Next, 5 μl of compound dissolved in DMSO is added to the vesicles. The reaction is initated by the addition of 5 μl MTP, followed by incubation for 30 min at room temperature. […] Time of incubation can be increased to measure low activity in different samples. In such situations, samples are prepared just prior to measuring fluorescence units. For this purpose, isopropanol is added to substrate vesicles about 5 min prior to fluorescence measurement as the fluorescence readings in isopropanol decrease with time.
# MTP, sequence (P55157 19-894, species assumed): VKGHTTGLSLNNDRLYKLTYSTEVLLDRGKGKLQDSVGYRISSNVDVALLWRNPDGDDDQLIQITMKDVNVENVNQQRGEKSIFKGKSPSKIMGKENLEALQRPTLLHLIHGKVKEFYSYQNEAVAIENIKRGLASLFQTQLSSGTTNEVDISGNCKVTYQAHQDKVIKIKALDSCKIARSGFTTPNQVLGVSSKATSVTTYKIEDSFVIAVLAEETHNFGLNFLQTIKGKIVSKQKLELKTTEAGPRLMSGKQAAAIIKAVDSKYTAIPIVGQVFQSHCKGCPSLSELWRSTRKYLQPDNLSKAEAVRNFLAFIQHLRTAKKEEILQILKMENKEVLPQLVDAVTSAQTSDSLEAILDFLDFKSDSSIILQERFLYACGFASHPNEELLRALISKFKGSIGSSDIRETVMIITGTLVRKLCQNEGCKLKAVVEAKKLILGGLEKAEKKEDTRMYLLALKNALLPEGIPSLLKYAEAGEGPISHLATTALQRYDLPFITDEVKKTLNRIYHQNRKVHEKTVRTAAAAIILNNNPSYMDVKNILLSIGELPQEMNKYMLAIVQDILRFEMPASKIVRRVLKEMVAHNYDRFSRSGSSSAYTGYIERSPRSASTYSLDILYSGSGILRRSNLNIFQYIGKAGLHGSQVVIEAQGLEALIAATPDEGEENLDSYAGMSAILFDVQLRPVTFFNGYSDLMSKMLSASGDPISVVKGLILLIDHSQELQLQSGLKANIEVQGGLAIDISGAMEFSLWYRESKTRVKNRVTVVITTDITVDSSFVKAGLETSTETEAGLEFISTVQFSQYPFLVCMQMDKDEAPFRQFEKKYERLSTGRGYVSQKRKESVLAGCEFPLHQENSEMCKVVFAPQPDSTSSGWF
# MTP, sequence (P07237 18-508 partner, species assumed): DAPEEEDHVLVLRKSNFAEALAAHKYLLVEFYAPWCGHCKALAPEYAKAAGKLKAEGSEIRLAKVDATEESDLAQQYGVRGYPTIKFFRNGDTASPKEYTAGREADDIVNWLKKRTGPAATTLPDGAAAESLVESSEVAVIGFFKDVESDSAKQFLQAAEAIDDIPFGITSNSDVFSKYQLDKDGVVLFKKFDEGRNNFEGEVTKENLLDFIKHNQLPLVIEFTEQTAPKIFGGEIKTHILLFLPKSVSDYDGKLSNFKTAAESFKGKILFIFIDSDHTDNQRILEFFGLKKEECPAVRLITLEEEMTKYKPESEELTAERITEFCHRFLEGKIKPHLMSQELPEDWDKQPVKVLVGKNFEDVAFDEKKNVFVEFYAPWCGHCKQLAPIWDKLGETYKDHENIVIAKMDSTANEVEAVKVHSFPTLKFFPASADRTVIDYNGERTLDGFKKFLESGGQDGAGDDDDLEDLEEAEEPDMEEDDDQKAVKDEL
row,Structure (SMILES),IC50
1,Cc1cccc(C(=O)Nc2ccc3nc(C(=O)N[C@H](C(=O)N(C)Cc4ccc(F)cc4)c4ccccc4)sc3c2)c1-c1ccc(C(C)(C)C)cc1 [Compound 41],4.7 nM
